Laboratory results: patent US6416746B1, “Indanylidene compounds” (Roche Vitamins Inc., priority 1998, dated 2002)

Key:
[1] = Solubility in cosmetic solvents (CÉTIOL LC, CRODAMOL DA); details: for Solubility in CRODAMOL DA: solvent CRODAMOL DA (Diisopropyl adipate); for Solubility in CÉTIOL LC: solvent CÉTIOL LC (Coco-caprylate/caprate); for solubility in cosmetic solvents (in words): cosmetic solvents such as CÉTIOL LC and CRODAMOL DA
[2] = Photostability at high dilution in ethanol solution under Hg lamp with Pyrex filter; format: physicochemical
Procedure: A 25 ml reaction flask equipped with a distillation bridge and connected to vacuum was charged with 2 g (6.3 mmol) of cyano-(2,3-dihydro-5,6-dimethoxy-3,3-dimethyl-1H-inden-1-ylidene) acetic acid ethyl ester (see Example 1), 1.37 g (6.6 mmol) of 3-(1,1,3,3,3-pentamethy-disiloxanyl)-propanol (see above) and 3 mg of tetraisopropyl ortho titanate. The mixture was heated to 115° C. to 120° C. at a vacuum of 360 mbar with stirring for 11 hours.

| Compound | Solubility in CRODAMOL DA [1] | Solubility in CÉTIOL LC [1] | Solubility in CÉTIOL LC ([1]; listed as drawing 30) | photostability [2] | solubility in cosmetic solvents (in words) [1] | Solubility in CÉTIOL LC ([1]; listed as drawing 33) |
| --- | --- | --- | --- | --- | --- | --- |
| CCOC(=O)/C(C#N)=C1\CC(C)(C)c2cc(OC)c(OC)cc21 [Example 1, Cyano-(2,3-dihydro-5,6-dimethoxy-3,3-dimethyl-1H-inden-1-ylidene)acetic Acid Ethyl Ester, reference compound] | 1.71% | 0.35% | 0.35% | – | – | – |
| COc1cc2c(cc1OC)C(C)(C)C/C2=C(/C#N)C(=O)OCCC[Si](C)(C)O[Si](C)(C)C [Example 2, Cyano-(2,3-dihydro-5,6-dimethoxy-3,3-dimethyl-1H-inden-1-ylidene) acetic Acid-3-(1,1,3,3,3-pentamethy-disiloxanyl)-propyl Ester] | miscible | – | – | excellent photostability | excellent solubility | – |
| COc1cc2c(cc1OC)C(C)(C)C/C2=C(/C#N)C(=O)OCC(C)C[Si](C)(C)O[Si](C)(C)C (centres unmarked) [Example 3, Cyano-(2,3-dihydro-5,6-dimethoxy-3,3-dimethyl-1H-inden-1-ylidene) acetic Acid-3-(1,1,3,3,3-pentamethy-disiloxanyl)-2-methyl-propyl Ester] | miscible | – | – | same solubility and photostability qualities as described in Example 2b | same solubility and photostability qualities as described in Example 2b | – |
| COc1cc2c(cc1OC)C(C)(C)C/C2=C(/C#N)C(=O)OCCCC[Si](C)(O[Si](C)(C)C)O[Si](C)(C)C [Example 4, Cyano-(2,3-dihydro-5,6-dimethoxy-3,3-dimethyl-1H-inden-1-ylidene) acetic Acid-4-(1,3,3,3-tetramethyl-1-[(trimethylsilyl)-oxy]-disiloxanyl)-butyl Ester] | miscible | – | – | excellent photostability | – | – |
| CC[Si](CC)(CC)CCOCCCCOC(=O)/C(C#N)=C1\CC(C)(C)c2cc(OC)c(OC)cc21 [Example 5, Cyano-(2,3-dihydro-5,6-dimethoxy-3,3-dimethyl-1H-inden-1-ylidene) acetic Acid-4-(2-triethylsilanyl-ethoxy)-butyl Ester] | miscible | – | – | same solubility and photostability qualities as described in Example 2b | same solubility and photostability qualities as described in Example 2b | – |
| CC[Si](/C=C/CCOC(=O)/C(C#N)=C1\CC(C)(C)c2cc(OC)c(OC)cc21)(CC)CC [Example 6, Cyano-(2,3-dihydro-5,6-dimethoxy-3,3-dimethyl-1H-inden-1-ylidene) acetic Acid-4-triethylsilanyl-but-3-enyl Ester] | miscible | – | – | same solubility and photostability qualities as described in Example 2b | same solubility and photostability qualities as described in Example 2b | – |
| COc1ccc2c(c1)CC(C)/C2=C(/C#N)C(=O)OCCCC[Si](C)(C)O[Si](C)(C)C (centres unmarked) [Example 7, Cyano-(2,3-dihydro-5-methoxy-2-methyl-1H-inden-1-ylidene)acetic Acid-4-(1,1,3,3,3-pentamethy-disiloxanyl)-butyl Ester] | miscible | – | – | same solubility and photostability qualities as described in Example 2b | same solubility and photostability qualities as described in Example 2b | – |
| C=C(CNC(=O)/C(C#N)=C1\CC(C)(C)c2cc(OC)c(OC)cc21)[Si](C)(O[Si](C)(C)C)O[Si](C)(C)C [Example 8, Cyano-(2,3-dihydro-5,6-dimethoxy-3,3-dimethyl-1H-inden-1-ylidene)acetic Acid-2-(1,3,3,3-tetramethyl-1-[(trimethylsilyl)-oxy]-disiloxanyl)-prop-2-enyl Amide] | miscible | – | – | same photostability qualities as described in Example 2b | – | – |
| C#CCNC(=O)/C(C#N)=C1\CC(C)(C)c2cc(OC)c(OC)cc21 [Example 8b, 2-Cyano-2-(5,6-dimethoxy-3,3-dimethyl-indan-1-ylidene)-N-prop-2-ynyl-acetamide, reference compound] | – | 0.04% | – | – | – | 0.04% |
| C=C(COc1cc2c(cc1OC)/C(=C(\C#N)C(=O)OCC)CC2(C)C)[Si](C)(O[Si](C)(C)C)O[Si](C)(C)C [Example 11] | miscible | – | – | same photostability qualities as described in Example 2b | – | – |
| CCOC(=O)/C(C#N)=C1\CC(C)(C)c2cc(OC)ccc21 [drawing 31, reference compound] | 0.60% | 0.10% | – | – | – | – |
| CCOC(=O)/C(C#N)=C1\CC(C)(C)c2cc(OC)ccc21 [drawing 32, reference compound] | – | 0.09% | – | – | – | – |
